Test results taken from ChEMBL document CHEMBL1201862, “PubChem BioAssay data set” (2004).
Activity calls are given as the source filed them.

Columns and labels:
[1] = molecular target: Protein-tyrosine kinase 2-beta (Homo sapiens, UniProt Q14289);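 note: potency of inhibitors of PYK2 kinase phosphorylation of poly-GT substrate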
[2] = molecular target: T1, Replicative DNA helicase DnaB (Mycobacterium tuberculosis, UniProt P9WMR3); test: DnaB intein splicing inhibitors, dose response, biochemical, cell-free fluorescence (AID 449749); assay type: functional
T1 sequence (P9WMR3 whole entry): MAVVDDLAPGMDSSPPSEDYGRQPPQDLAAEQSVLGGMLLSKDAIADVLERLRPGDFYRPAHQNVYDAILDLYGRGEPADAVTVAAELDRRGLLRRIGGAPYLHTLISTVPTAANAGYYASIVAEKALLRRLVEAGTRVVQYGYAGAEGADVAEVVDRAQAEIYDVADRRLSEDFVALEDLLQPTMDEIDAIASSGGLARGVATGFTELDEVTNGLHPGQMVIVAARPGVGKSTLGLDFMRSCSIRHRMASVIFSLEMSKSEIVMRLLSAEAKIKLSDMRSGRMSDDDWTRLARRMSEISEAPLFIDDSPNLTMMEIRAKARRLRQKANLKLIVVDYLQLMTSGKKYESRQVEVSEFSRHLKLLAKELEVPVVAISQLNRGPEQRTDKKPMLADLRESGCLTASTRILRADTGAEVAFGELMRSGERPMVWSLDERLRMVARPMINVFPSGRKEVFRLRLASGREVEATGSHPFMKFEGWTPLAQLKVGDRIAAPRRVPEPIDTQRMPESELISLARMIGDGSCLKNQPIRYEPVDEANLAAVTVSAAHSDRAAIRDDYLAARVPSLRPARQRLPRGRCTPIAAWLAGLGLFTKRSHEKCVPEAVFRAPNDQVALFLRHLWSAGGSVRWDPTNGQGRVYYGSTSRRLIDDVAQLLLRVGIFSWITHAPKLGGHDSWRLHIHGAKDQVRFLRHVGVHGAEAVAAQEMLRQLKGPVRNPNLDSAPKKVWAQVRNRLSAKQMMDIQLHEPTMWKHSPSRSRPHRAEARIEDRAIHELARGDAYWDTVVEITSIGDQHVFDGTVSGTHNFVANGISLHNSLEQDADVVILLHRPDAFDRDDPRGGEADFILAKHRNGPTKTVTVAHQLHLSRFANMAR

[3] = molecular target: T2, Apoptotic protease-activating factor 1 (Homo sapiens, UniProt O14727); assay type: functional
T2 sequence (O14727 whole entry): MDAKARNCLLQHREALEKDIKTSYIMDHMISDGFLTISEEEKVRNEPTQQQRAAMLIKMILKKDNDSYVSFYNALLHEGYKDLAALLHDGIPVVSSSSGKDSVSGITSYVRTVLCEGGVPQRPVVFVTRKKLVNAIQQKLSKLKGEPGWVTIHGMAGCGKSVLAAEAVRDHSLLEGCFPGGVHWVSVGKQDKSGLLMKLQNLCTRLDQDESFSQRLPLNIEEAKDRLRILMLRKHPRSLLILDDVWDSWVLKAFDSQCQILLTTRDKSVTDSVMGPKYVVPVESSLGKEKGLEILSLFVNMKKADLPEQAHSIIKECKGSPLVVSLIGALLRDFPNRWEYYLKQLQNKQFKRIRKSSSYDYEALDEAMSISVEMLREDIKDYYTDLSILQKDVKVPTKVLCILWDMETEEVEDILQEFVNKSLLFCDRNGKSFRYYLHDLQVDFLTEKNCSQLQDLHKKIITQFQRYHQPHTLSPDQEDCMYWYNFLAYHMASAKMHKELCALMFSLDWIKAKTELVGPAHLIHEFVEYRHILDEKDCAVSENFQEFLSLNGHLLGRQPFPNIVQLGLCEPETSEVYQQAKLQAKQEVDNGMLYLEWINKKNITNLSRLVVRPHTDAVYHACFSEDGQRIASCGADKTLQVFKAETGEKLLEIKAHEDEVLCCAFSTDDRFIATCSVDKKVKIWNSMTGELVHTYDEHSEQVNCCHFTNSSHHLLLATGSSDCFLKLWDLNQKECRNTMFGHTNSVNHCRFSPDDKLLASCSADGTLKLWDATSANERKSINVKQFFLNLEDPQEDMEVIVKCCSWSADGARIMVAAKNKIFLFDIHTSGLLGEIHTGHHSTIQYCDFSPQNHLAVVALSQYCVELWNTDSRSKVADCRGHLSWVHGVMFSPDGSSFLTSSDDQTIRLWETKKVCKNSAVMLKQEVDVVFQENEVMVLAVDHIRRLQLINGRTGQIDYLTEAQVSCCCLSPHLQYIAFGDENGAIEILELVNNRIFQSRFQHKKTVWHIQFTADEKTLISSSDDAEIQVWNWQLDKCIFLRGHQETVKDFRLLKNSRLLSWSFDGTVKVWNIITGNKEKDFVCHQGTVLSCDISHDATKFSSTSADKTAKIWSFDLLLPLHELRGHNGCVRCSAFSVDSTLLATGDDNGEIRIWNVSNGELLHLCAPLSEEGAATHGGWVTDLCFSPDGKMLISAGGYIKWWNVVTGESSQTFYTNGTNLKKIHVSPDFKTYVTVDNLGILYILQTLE

Protein RecA = molecular target: T3, Protein RecA (Mycobacterium tuberculosis, UniProt P9WHJ3); test: Fluorescence Cell-Free Homogeneous Dose Retest to Identify Inhibitors of RecA-Intein Splicing Activity. [Related pubchem assays (depositor defined):AID2097, AID2223, AID489010, AID492950]; assay type: functional
T3 sequence (P9WHJ3 whole entry): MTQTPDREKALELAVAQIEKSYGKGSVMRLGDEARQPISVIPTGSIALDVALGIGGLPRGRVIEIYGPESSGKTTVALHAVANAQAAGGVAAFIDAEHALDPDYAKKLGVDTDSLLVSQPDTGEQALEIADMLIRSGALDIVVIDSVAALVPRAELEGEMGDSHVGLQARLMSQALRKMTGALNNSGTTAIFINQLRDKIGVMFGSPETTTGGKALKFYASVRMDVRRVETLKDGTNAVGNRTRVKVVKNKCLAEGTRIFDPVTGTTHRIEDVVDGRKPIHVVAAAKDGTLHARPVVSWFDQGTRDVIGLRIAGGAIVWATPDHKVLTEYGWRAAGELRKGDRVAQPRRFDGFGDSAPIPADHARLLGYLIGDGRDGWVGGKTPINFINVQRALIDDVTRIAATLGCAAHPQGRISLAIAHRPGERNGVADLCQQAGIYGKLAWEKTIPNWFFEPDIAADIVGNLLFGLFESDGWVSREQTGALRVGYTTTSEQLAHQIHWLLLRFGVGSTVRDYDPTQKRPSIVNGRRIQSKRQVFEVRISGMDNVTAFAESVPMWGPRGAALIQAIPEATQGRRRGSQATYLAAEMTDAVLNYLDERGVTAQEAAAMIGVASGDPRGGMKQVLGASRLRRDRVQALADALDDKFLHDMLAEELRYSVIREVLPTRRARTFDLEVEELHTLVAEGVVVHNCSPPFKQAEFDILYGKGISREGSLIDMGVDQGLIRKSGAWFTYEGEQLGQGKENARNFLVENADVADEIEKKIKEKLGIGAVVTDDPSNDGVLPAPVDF

[4] = molecular target: T4, Sentrin-specific protease 8 (Homo sapiens, UniProt Q96LD8); assay type: functional
T4 sequence (Q96LD8 whole entry): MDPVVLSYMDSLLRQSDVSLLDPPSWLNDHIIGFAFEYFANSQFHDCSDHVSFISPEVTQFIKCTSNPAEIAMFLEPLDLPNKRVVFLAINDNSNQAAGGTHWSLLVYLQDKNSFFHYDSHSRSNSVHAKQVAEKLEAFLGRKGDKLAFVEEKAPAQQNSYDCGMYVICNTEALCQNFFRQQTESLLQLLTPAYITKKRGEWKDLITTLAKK

[5] = molecular target: T4, Sentrin-specific protease 8; assay type: functional; remark: listed apart in the source
[6] = cytotoxicity in HPDE-C7 cells, cell-based, fluorescence, HTS (AID 430); assay type: functional; details: Homo sapiens
[7] = cytotoxicity in KRAS-transformed pancreatic duct cells, primary screen, cell-based, fluorescence, HTS (AID 431); assay type: functional; details: Homo sapiens;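 note: cell line used: HPDE-C7K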

Sequence of Protein-tyrosine kinase 2-beta (Q14289 whole entry): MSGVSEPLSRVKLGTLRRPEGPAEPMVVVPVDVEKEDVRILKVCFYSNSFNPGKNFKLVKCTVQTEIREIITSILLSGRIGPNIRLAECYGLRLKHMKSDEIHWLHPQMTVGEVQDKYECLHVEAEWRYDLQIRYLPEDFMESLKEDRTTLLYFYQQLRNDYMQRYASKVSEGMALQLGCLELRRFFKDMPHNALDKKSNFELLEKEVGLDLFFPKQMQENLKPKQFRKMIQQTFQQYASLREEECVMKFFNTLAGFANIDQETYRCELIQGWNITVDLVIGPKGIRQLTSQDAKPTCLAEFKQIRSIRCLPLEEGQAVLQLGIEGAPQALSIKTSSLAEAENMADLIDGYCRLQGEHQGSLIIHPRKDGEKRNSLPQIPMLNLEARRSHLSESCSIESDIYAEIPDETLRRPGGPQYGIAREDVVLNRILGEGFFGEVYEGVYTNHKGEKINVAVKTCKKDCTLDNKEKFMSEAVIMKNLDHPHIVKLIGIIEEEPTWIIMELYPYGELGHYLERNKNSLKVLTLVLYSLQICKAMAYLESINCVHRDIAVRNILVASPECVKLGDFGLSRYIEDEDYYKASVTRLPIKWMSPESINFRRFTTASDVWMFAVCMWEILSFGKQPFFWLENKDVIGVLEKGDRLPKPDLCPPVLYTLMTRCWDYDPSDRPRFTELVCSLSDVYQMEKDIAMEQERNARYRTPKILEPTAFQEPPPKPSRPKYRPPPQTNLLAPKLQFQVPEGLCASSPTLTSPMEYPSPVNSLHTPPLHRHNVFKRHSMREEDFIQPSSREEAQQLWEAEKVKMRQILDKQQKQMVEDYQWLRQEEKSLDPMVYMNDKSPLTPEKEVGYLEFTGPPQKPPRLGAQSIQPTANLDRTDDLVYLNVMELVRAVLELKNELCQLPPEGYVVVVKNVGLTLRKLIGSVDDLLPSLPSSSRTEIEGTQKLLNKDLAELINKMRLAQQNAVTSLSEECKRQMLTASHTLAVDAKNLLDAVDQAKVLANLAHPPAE

Row | Compound | IC50 [1] | AC50 [2] | IC50 [3] | EC50 (Protein RecA) | IC50 [4] | IC50 [5] | EC50 [6] | EC50 [7]
1 | O=C1Cc2ccccc2C(=O)N1CCc1ccccc1 | > 69.5 µM (not active) | 2.17 µM (active) | 4.03 µM (active) | 2.99 µM (active) | 2.89 µM (active) | 0.148 µM (active) | – | –
2 | COCCNC(=O)c1c(N)n(CCC2=CCCCC2)c2nc3ccccc3nc12 | – | – | – | – | – | – | > 20 µM (not active) | > 20 µM (not active)
